Reference: patent EP4725957A1, “GROUP OF CYCLIC ALKALINE LIPOPEPTIDE COMPOUNDS, AND PREPARATION METHOD THEREFOR AND USE THEREOF” (Institute of Medicinal Biotechnology, Chinese Academy of …, priority 2023, dated 2024)
Converted amounts (≈) assume the structure as drawn. Bridge positions count the residues as written; N and C are the ends. Square brackets hold non-standard residues; d marks the D form. Peptide text beside a SMILES is read from it. * marks the point of attachment. Heptanoyl(6-Me) = CC(C)CCCCC(=O)*; Nonanoyl = CCCCCCCCC(=O)*; X1 = CC[C@H](C)CCCCC(=O)*; dDab = NCC[C@@H](N)C(=O)O; Orn = NCCC[C@H](N)C(=O)O; Dab = NCC[C@H](N)C(=O)O; Dap = NC[C@H](N)C(=O)O

Key:
Assay type in all cases: cell-based
[1] = Nephrotoxicity assay: in vitro cytotoxicity of HK-2 cells by CCK-8 assay; details: human, HK-2 cells (human renal), 72 h incubation with drug-containing medium
Outline: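 HK-2 human renal cells in RPMI-1640 with 10% FBS were exposed to compounds at final 12.5–500 µg/mL for 72 h, then CCK-8 for 3 h and OD450 read. Viability was normalised to drug-free wells; IC50 came from logarithmic regression over three repeats, with polymyxin B as positive drug.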

[2] = system: Klebsiella pneumoniae ATCC BAA-1705 (KPC); details: ATCC BAA-1705
Outline: (§1)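 Minimal inhibitory concentrations are measured following CLSI microdilution guidance in MH broth. Test concentrations run from 64 down to 0.03 mg/L in doubling steps, with a final bacterial load of (2-4) × 10^5 CFU/mL and 16-20 h incubation at 35-37°C.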

[3] = system: Klebsiella pneumoniae KPN+19-15; details: KPN+19-15
Outline: as §1

[4] = system: Escherichia coli ATCC BAA-2523; details: ATCC BAA-2523
Outline: as §1

[5] = system: Escherichia coli ATCC BAA-2340 (KPC); details: ATCC BAA-2340
Outline: as §1

[6] = system: Acinetobacter baumannii NCTC 13304 (OXA-27); details: NCTC 13304
Outline: as §1

[7] = system: Acinetobacter baumannii ABA19-1; details: ABA19-1
Outline: as §1

[8] = system: Pseudomonas aeruginosa PAE19-3; details: PAE19-3
Outline: as §1

[9] = system: Pseudomonas aeruginosa ATCC 27853; details: ATCC 27853
Outline: as §1

SMILES	IC50 at 72 h [1]	MIC [2]	MIC [3]	MIC [4]	MIC [5]	MIC [6]	MIC [7]	MIC [8]	MIC [9]
CCCCCCCCC(=O)N[C@@H](CCN)C(=O)N[C@H](C(=O)N[C@@H](CCCN)C(=O)N[C@H]1CCNC(=O)[C@H]([C@@H](C)O)NC(=O)[C@H](CCN)NC(=O)[C@H](CCN)NC(=O)[C@H](CC(C)C)NC(=O)[C@@H](Cc2ccccc2)NC(=O)[C@H](CCN)NC1=O)[C@@H](C)O [Compound 50, Nonanoyl-Dab-Thr-Orn-ring(4-10)[Dab-Dab-D-Phe-Leu-Dab-Dab-Thr]] (Nonanoyl-[Dab]T[Orn][Dab][Dab][dF]L[Dab][Dab]T; lactam 4-C)	150 ± 5.2 mg/L (≈ 123 µM)	0.03 mg/L (≈ 0.0246 µM)	0.03 mg/L (≈ 0.0246 µM)	0.06 mg/L (≈ 0.0493 µM)	0.06 mg/L (≈ 0.0493 µM)	0.06 mg/L (≈ 0.0493 µM)	0.125 mg/L (≈ 0.103 µM)	0.5 mg/L (≈ 0.411 µM)	0.03 mg/L (≈ 0.0246 µM)
CCCCCCCCC(=O)N[C@@H](CN)C(=O)N[C@H](C(=O)N[C@H](CCN)C(=O)N[C@H]1CCNC(=O)[C@H]([C@@H](C)O)NC(=O)[C@H](CCN)NC(=O)[C@H](CCN)NC(=O)[C@H](CC(C)C)NC(=O)[C@@H](Cc2ccccc2)NC(=O)[C@H](CCN)NC1=O)[C@@H](C)O [Compound 95, Nonanoyl-Dap-Thr-D-Dab-ring(4-10)[Dab-Dab-D-Phe-Leu-Dab-Dab-Thr]] (Nonanoyl-[Dap]T[dDab][Dab][Dab][dF]L[Dab][Dab]T; lactam 4-C)	113 ± 10.3 mg/L (≈ 94.8 µM)	0.06 mg/L (≈ 0.0504 µM)	0.06 mg/L (≈ 0.0504 µM)	0.125 mg/L (≈ 0.105 µM)	0.125 mg/L (≈ 0.105 µM)	0.06 mg/L (≈ 0.0504 µM)	0.06 mg/L (≈ 0.0504 µM)	1 mg/L (≈ 0.841 µM)	1 mg/L (≈ 0.841 µM)
CCCCCCCCC(=O)N[C@@H](CN)C(=O)N[C@H](C(=O)N[C@H](CCN)C(=O)N[C@H]1CCNC(=O)[C@H]([C@@H](C)O)NC(=O)[C@H](CCN)NC(=O)[C@H](CCN)NC(=O)[C@H](CC(C)C)NC(=O)[C@@H](CC(C)C)NC(=O)[C@H](CCN)NC1=O)[C@@H](C)O [Compound 100, Nonanoyl-Dap-Thr-D-Dab-ring(4-10)[Dab-Dab-D-Leu-Leu-Dab-Dab-Thr]] (Nonanoyl-[Dap]T[dDab][Dab][Dab][dL]L[Dab][Dab]T; lactam 4-C)	117 ± 15.6 mg/L (≈ 101 µM)	0.06 mg/L (≈ 0.0519 µM)	0.06 mg/L (≈ 0.0519 µM)	0.125 mg/L (≈ 0.108 µM)	0.125 mg/L (≈ 0.108 µM)	0.06 mg/L (≈ 0.0519 µM)	0.06 mg/L (≈ 0.0519 µM)	1 mg/L (≈ 0.865 µM)	1 mg/L (≈ 0.865 µM)
CC(C)CCCCC(=O)N[C@@H](CCN)C(=O)N[C@H](C(=O)N[C@H](CO)C(=O)N[C@H]1CCNC(=O)[C@H]([C@@H](C)O)NC(=O)[C@H](CCCN)NC(=O)[C@H](CCN)NC(=O)[C@H]([C@@H](C)O)NC(=O)[C@@H](Cc2ccccc2)NC(=O)[C@H](CCN)NC1=O)[C@@H](C)O [Compound 87, 6-methylheptanoyl-Dab-Thr-D-Ser-ring(4-10)[Dab-Dab-D-Phe-Thr-Dab-Orn-Thr]] ({Heptanoyl(6-Me)}-[Dab]T[dS][Dab][Dab][dF]T[Dab][Orn]T; lactam 4-C)	> 500 mg/L	0.25 mg/L (≈ 0.212 µM)	0.5 mg/L (≈ 0.424 µM)	0.03 mg/L (≈ 0.0255 µM)	0.03 mg/L (≈ 0.0255 µM)	≤0.03 mg/L	0.06 mg/L (≈ 0.0509 µM)	64 mg/L (≈ 54.3 µM)	>64 mg/L
CC[C@H](C)CCCCC(=O)N[C@@H](CN)C(=O)N[C@H](C(=O)N[C@H](CCN)C(=O)N[C@H]1CCNC(=O)[C@H]([C@@H](C)O)NC(=O)[C@H](CCN)NC(=O)[C@H](CCN)NC(=O)[C@H](CC(C)C)NC(=O)[C@@H](CC(C)C)NC(=O)[C@H](CCN)NC1=O)[C@@H](C)O [Compound 96, (S)-6-methyloctanoyl-Dap-Thr-D-Dab-ring(4-10)[Dab-Dab-D-Leu-Leu-Dab-Dab-Thr]] (X1-[Dap]T[dDab][Dab][Dab][dL]L[Dab][Dab]T; lactam 4-C)	207 ± 13.2 mg/L (≈ 179 µM)	0.03 mg/L (≈ 0.026 µM)	0.03 mg/L (≈ 0.026 µM)	0.03 mg/L (≈ 0.026 µM)	0.03 mg/L (≈ 0.026 µM)	0.03 mg/L (≈ 0.026 µM)	0.03 mg/L (≈ 0.026 µM)	0.5 mg/L (≈ 0.433 µM)	0.5 mg/L (≈ 0.433 µM)
